# From patent US20230277553A1, “THERAPEUTIC COMPOSITION OF CURE-PRO COMPOUNDS FOR TARGETED DEGRADATION OF BET DOMAIN PROTEINS, AND METHODS OF MAKING AND USAGE” (CORNELL UNIVERSITY, priority 2020, published 2023)
# “Also recorded” adds a separate entry of the source.
# Tests used:
# Assay type in all cases: cell-based
# caspase 3/7 = assay: Caspase-Glo 3/7 assay, Namalwa cells; conditions: 24 hours, 1:1 with 8047
# Experimental: Caspase-glo® assay (Promega) was conducted following the manufacturer's recommendations. Cells were seeded at a density of 5000 cells/well in a white 96 well plates (Corning, #3917) in a total volume of 100 μl with respective monomers, combinations of BRD ligands together with E3 ligase ligands or vehicle control treatment. After a 24 h incubation, 100 μl of the […] substrate was added per well and luminescence was read on a Spectramax M5 (Molecular Devices).
# Namalwa cells (5×104) were treated for 24 hours with the compounds solubilized in DMSO. FIG. 57 is a bar graph depiction of fold increase of apoptosis assessed via caspase 3/7 activity using the Caspase-glo assay (Promega) described above.
# Molm-13 (FIG. 76A) or Namalwa (FIG. 76B) cells (5×10^4) were treated for 24 hours with the compounds solubilized in DMSO in white 96 well plates (10 nM-10 μM solubilized in DMSO). FIG. 76 is a bar graph depiction of fold increase of apoptosis assessed via caspase 3/7 activity using the Caspase-glo assay (Promega) described above.
# Namalwa cells = assay: CellTiter-Glo cell viability, Namalwa cells; conditions: 72 hours, 1:1 with 8047, 10 nM-10 μM each
# Experimental: CellTiter-Glo® 2.0 Cell Viability Assay (Promega) was carried out following the manufacturer's recommendations. Cells were seeded at a density of 1000 cells/well in a white 96 well plates (Corning, #3917) in a total volume of 100 μl with respective monomers, combinations of BRD ligands together with E3 ligase ligands or vehicle control treatment. After a 72 h incubation, 100 ul of the CellTiter-Glo® substrate was added per well and luminescence was read on a Spectramax M5 (Molecular Devices). Dose-response curves were generated using Graphpad Prism software.
# Namalwa cells (1×104) were treated for 72 hours with the compounds solubilized in DMSO. Compounds were added at 10 nM-10 μM each. Cellular viability was determined using the CellTiter-Glo® Luminescent Cell Viability Assay (Promega) described above. FIG. 56 depicts the CURE-PRO-mediated loss of cellular viability for the BRD-E72 monomer (JQ1 derivatives comprising of boronic acid linkers), and the CRBN ligand, 8047 (a pomalidomide derivative comprising diol linkers) combined in a 1:1 ratio.
# BRD4 [1] = target: T1, BRD4 (Homo sapiens, UniProt O60885); assay: CURE-PRO-mediated BRD4 degradation, WES (ProteinSimple), HeLa cells; parameters: endogenous in cells; host or cells: HeLa; conditions: 10 μM each, 4-24 h with washout after 4 h, or 100 nM-10 μM
# Experimental: All cell lines were purchased from ATCC or DSMZ and grown at 37° C. with 5% CO2. Human HeLa cells were cultured in complete growth medium (Dulbecco's modified Eagle's medium (DMEM) supplemented with 10% FBS); MCF7 cells were cultured in complete growth medium (Dulbecco's modified Eagle's medium (DMEM) supplemented with 10% FBS and 0.01 mg/ml human recombinant insulin (Sigma Aldrich); Namalwa and MOLM-13 cells were cultured in complete growth medium (RPMI 1640 medium supplemented with 10% FBS); MV-4-11 were cultured in complete growth medium (Iscove's Modified Dulbecco's medium, supplemented with 10% FBS); HCT116 cells were cultured in complete growth medium (McCoy's 5a Medium supplemented with 10% FBS). For cellular degradation of BRD4 studies, cells were seeded in a 12-well plate at 70-80% confluency, allowed to attach overnight, and incubated with the indicated compounds for the indicated time. When indicated, a 15-minute pretreatment with 10 μM pomalidomide, 10 μM VHL298, 10 μM Nutlin3a, 1 μM MG-132 or 1 μM Carfilzomib was performed before the addition of CURE-PROs. For washout studies, after CURE-PRO treatment, media was aspirated and incubated with complete medium for the indicated time before lysis.
# Anti-BRD4 (13440, 1:1,000 dilution for Western Blot and 1:25 dilution for ProteinSimple); Anti-BRD2 (5848 1:1,000 dilution for Western Blot and 1:25 dilution for ProteinSimple); β-Actin (3700, 1:2,000 dilution for Western Blot), β-Actin (4970, 1:50 dilution for ProteinSimple) anti-mouse IgG-HRP, and anti-rabbit IgG-HRP antibodies were purchased Cell Signaling Technology. Anti-GAPDH (600-401-A33, 1:100 dilution for ProteinSimple) was purchased from Rockland Immunochemicals, Inc. Anti-BRD3 (sc-81202, 1:200 dilution for Western Blot) was purchased from Santa Cruz Biotechnology.
# WES Simple analysis was performed on WES system (ProteinSimple-Biotechne) according to the manufacturer's instructions. Total protein concentrations of cell lysates were determined by the Pierce BCA kit (Thermo Fisher). 3 μL of 0.3 μg/μL of the protein lysate was loaded onto a 12- to 230-kDa WES assay plate (ProteinSimple) where 300 nL sample was withdrawn through a capillary, subjected to electrophoretic separation of proteins by size, and followed by the simultaneous, HRP-based detection of proteins using the Anti-Rabbit Detection Module (Proteinsimple: #DM-001). The electropherograms were checked then the automatic peak detection was manually corrected if it was required.
# HeLa cells (2.5×10^6) were treated for 4-24 hours with the compounds solubilized in DMSO. After 4 hours, indicated points were washed and cells were left in full growth media. Compounds were added at 10 μM each. […]
# BRD4 [2] = target: T1, BRD4; assay: CURE-PRO-mediated BRD4 degradation, Western blot, HeLa cells; parameters: endogenous in cells; host or cells: HeLa; conditions: 24 h
# Method in brief: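 HeLa cells treated 24 h with compounds in DMSO (1-10 μM, 10 μM or 100 μM each; paired monomers combined 1:1), optional 15-min pretreatment with pomalidomide, VHL298, Nutlin3a (10 μM) or MG-132/carfilzomib (1 μM). RIPA lysates, 10-20 μg protein immunoblotted for BRD4 with β-actin, ECL detection.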
# BRD4 [3] = target: T1, BRD4; assay: Summary of BRD4 degradation by CURE-PRO pairs, estimated from Western Blot or WES (Proteinsimple); parameters: endogenous in cells; conditions: Table 1; CRBN ligand, second drawing (8047)
# Source text: A black check mark indicates efficacy of 30% to 70% or higher protein degradation.
smiles,measurement,setting,value
"CCNC(=O)C[C@@H]1N=C(c2ccc(Cl)cc2)c2cc(-c3cccc(B(O)O)c3)ccc2-n2c(C)nnc21 [BRD-E72, (3-((4S)-6-(4-chlorophenyl)-4-(2-(ethylamino)-2-oxoethyl)-1-methyl-4H-benzo[f][1,2,4]triazolo[4,3-a][1,4]diazepin-8-yl)phenyl)boronic acid]","Caspase 3/7 activation, co-dosed with CRBN ligand 8047",caspase 3/7,demonstrates activation of caspase 3/7; also recorded: marked caspase activation
same,"Loss of cell viability, co-dosed with CRBN ligand 8047",Namalwa cells,increase in the loss of viability compared to monomer treatment alone; also recorded: marked loss in cell viability
same,"BRD4 degradation, co-dosing with CRBN ligand 8047 (WES)",BRD4 [1],marked BRD4 degradation after 4h with sustained degradation for up to 8h after drugs are washed out
same,"BRD4 degradation, BRD ligand with pomalidomide (no 8047)",BRD4 [2]; 10 μM,failed to induce BRD4 degradation
same,"BRD4 degradation, BRD ligand alone","BRD4 [2]; BRD monomer alone, Western blot",no change in expression
same,Degradation of BRD4 in combination with CRBN ligand [drawing 371],BRD4 [3],✓ (A black check mark indicates efficacy of 30% to 70% or higher protein degradation)
